Test results published in paper PMC8482274, “Inadequate Cerebrospinal Fluid Concentrations of Available Salvage Agents Further Impedes the Optimal Treatment of Multidrug-Resistant Enterococcus faecium Meningitis and Bacteremia” (Infectious Disease Reports, 2021).
Like-named read-outs stand apart in the source and are kept apart here.

Assays:
VREf isolates = test: microbe, parasite or virus in culture
Description: (§1) Initial organism identification and susceptibility determination were performed via MALDI-TOF MS (Bruker Daltonics, Billerica, MA, USA) and MicroScan Walkaway (Beckman Coulter, Brea, CA), respectively, in the clinical microbiology laboratory. Pure colonies of the VREf isolates cultured from the CSF on hospital days 33 and 57 and from blood on days 35 and 52 were sub-cultured to BD BBL chocolate II agar slants (Becton, Dickinson and Company, Sparks, MD, USA) and shipped immediately overnight to the research laboratory where all subsequent testing was performed. Identification and resistance marker detection was confirmed via the Verigene Gram-positive blood culture assay (Luminex, Northbrook, IL, USA).
Minimum inhibitory concentrations were determined in triplicate according to CLSI guidelines. Modal MIC values are reported.

VREf = test: microbe, parasite or virus in culture; assay type: cell-based, Enterococcus faecium
Description: as §1

[1] = Enterococcus faecium, VREf isolate from CSF, hospital day 33, modal MIC of triplicate, CLSI guidelines
[2] = Enterococcus faecium, VREf isolate from CSF, hospital day 57, modal MIC of triplicate, CLSI guidelines
[3] = Enterococcus faecium, VREf isolate from blood, hospital day 35, modal MIC of triplicate, CLSI guidelines
[4] = Enterococcus faecium, VREf isolate from blood, hospital day 52, modal MIC of triplicate, CLSI guidelines
[5] = VREf isolate from CSF, hospital day 33, CLSI M100-S30 unless footnoted (b: CLSI vancomycin-susceptible E. faecalis; c: FDA E. faecalis; d: EUCAST v.10.0 E. faecium)
[6] = VREf isolate from CSF, hospital day 57, CLSI M100-S30 unless footnoted
[7] = VREf isolate from blood, hospital day 35, CLSI M100-S30 unless footnoted
[8] = VREf isolate from blood, hospital day 52, CLSI M100-S30 unless footnoted

Structure (SMILES)	MIC (VREf isolates; [1]) [µg/mL]	MIC (VREf isolates; [2]) [µg/mL]	MIC (VREf isolates; [3]) [µg/mL]	MIC (VREf isolates; [4]) [µg/mL]	MIC (VREf isolates) [µg/mL]	Interpretive Category (VREf isolates; [5])	Interpretive Category (VREf isolates; [6])	Interpretive Category (VREf isolates; [7])	Interpretive Category (VREf isolates; [8])	local laboratory susceptibility result (VREf; VREf blood isolate of hospital day 22)	susceptibility category (VREf; VREf blood isolate returning after 11 days of daptomycin therapy)	susceptibility category (VREf; first episode of VREf bacteremia, 2.5 months before admission)
CO/N=C(\C(=O)N[C@@H]1C(=O)N2C(C(=O)O)=C(CSc3nc(=O)c(=O)[nH]n3C)CS[C@H]12)c1csc(N)n1 [Ceftriaxone]	≥ 128	≥ 128	≥ 128	≥ 128								
CCO/N=C(\C(=O)N[C@@H]1C(=O)N2C(C(=O)[O-])=C(Sc3nc(-c4cc[n+](C)cc4)cs3)CS[C@H]12)c1nsc(N)n1 [Ceftaroline]	≥ 128	≥ 128	≥ 128	≥ 128								
CNC(C)C1CCC(N)C(OC2C(N)CC(N)C(OC3OCC(C)(O)C(NC)C3O)C2O)O1 (stereo not drawn) [Gentamicin]	≤ 500	≤ 500	≤ 500	≤ 500		S	S	S	S			
CC[C@H]1OC(=O)[C@H](C)[C@@H](O[C@H]2C[C@@](C)(OC)[C@@H](O)[C@H](C)O2)[C@H](C)[C@@H](O[C@@H]2O[C@H](C)C[C@H](N(C)C)[C@H]2O)[C@](C)(O)C[C@@H](C)C(=O)[C@H](C)[C@@H](O)[C@]1(C)O [Erythromycin]	≥ 8	≥ 8	≥ 8	≥ 8		R	R	R	R			
CCCCCCCCCC(=O)N[C@@H](Cc1c[nH]c2ccccc12)C(=O)N[C@H](CC(N)=O)C(=O)N[C@@H](CC(=O)O)C(=O)N[C@@H]1C(=O)NCC(=O)N[C@@H](CCCN)C(=O)N[C@@H](CC(=O)O)C(=O)N[C@H](C)C(=O)N[C@@H](CC(=O)O)C(=O)NCC(=O)N[C@H](CO)C(=O)N[C@@H]([C@H](C)CC(=O)O)C(=O)N[C@@H](CC(=O)c2ccccc2N)C(=O)O[C@@H]1C [Daptomycin]					≥8	R	R	R	R	resistance	resistant	susceptible dose-dependent
CN(C)[C@@H]1C(O)=C(C(N)=O)C(=O)[C@@]2(O)C(O)=C3C(=O)c4c(O)cccc4[C@@](C)(O)[C@H]3C[C@@H]12 [Tetracycline]						R	R	R	R			

Now from value to molecule, other results behind:

MIC (VREf isolates; [1]) [µg/mL]	MIC (VREf isolates; [2]) [µg/mL]	MIC (VREf isolates; [3]) [µg/mL]	MIC (VREf isolates; [4]) [µg/mL]	MIC (VREf isolates) [µg/mL]	Structure (SMILES)	Interpretive Category (VREf isolates; [5])	Interpretive Category (VREf isolates; [6])	Interpretive Category (VREf isolates; [7])	Interpretive Category (VREf isolates; [8])	local laboratory susceptibility result (VREf; VREf blood isolate of hospital day 22)	susceptibility category (VREf; VREf blood isolate returning after 11 days of daptomycin therapy)	susceptibility category (VREf; first episode of VREf bacteremia, 2.5 months before admission)
≥ 128	≥ 128	≥ 128	≥ 128		O=C1CN(/N=C/c2ccc([N+](=O)[O-])o2)C(=O)N1 [Nitrofurantoin]	R	R	R	R			
≥ 4	≥ 4	≥ 4	≥ 4		CO[C@H]1/C=C/O[C@@]2(C)Oc3c(C)c(O)c4c(O)c(c(/C=N/N5CCN(C)CC5)c(O)c4c3C2=O)NC(=O)/C(C)=C\C=C\[C@H](C)[C@H](O)[C@@H](C)[C@@H](O)[C@@H](C)[C@H](OC(C)=O)[C@@H]1C [Rifampin]	R	R	R	R			
1	1	1	1		CN(C)c1cc(CNCC(C)(C)C)c(O)c2c1C[C@H]1C[C@H]3[C@H](N(C)C)C(O)=C(C(N)=O)C(=O)[C@@]3(O)C(O)=C1C2=O [Omadacycline]	R	R	R	R			
